Assay [1] concerns summer fruit tortrix moths (Adoxophyes orana). Kind of assay: Controlling effect on summer fruit tortrix moth, treated artificial feed. The class given is in vivo. The note with it: 168 h. On the procedure: Liquid medicines for a test were prepared by diluting each formulation of the compounds 1, 3, 6, 10, 12, 16, 17, 20, 21, 23, 26 to 29, 33, 38, and 42 of the present invention, which were obtained from Formulation Example 5, with water so that the concentration of the active ingredients becomes 500 ppm.
Silk Mates 2S (artificial feed: Nosan Corporation), which were sliced in a thickness of 2 mm, were placed on the bottom of polyethylene cups and 1 mL of each of the above-described liquid medicines for a test was irrigated thereto.
After air-drying, 30 first-instar larvae of summer fruit tortrix moths (Adoxophyes orana) were released in each cup, which was then covered with a lid. The cups were stored at 25° C., the number of surviving insects was counted after 7 days, and the mortality rate was obtained using the following formula.
(§1) Mortality(%)=(the number of dead insects/the number of insects provided for a test)×100

The next assay deals with diamondback moths. The assay can be described thus: Controlling effect on diamondback moth, spray on cabbages. The class given is in vivo. The note with it: Plutella xylostella, 120 h, read-out: Mortality rate. On the procedure: Spray solutions for a test were prepared by diluting each formulation of the compounds 1, 11 to 14, 16, 17, 36, and 38 of the present invention, which were obtained from Formulation Example 5, with water so that the concentration of the active ingredients becomes 500 ppm.
Meanwhile, each of the above-described liquid solutions for the test was sprayed on cabbages in a third-leaf stage which were planted in polyethylene cups at a ratio of 20 mL/cup. After the liquid solutions were dried, the stems and leaves were cut and accommodated in each 50 mL cup. 5 second-instar larvae of diamondback moths were released in each cup, which was then covered with a lid. The cups were stored at 25° C., the number of surviving insects was counted after 5 days, and the mortality rate was obtained using the following formula.
as §1

The subject of a further assay is cotton aphids. The assay can be described thus: Controlling effect on cotton aphid, spray on inoculated cucumber seedlings. The class given is in vivo, Aphis gossypii. The note with it: 144 h; 500 ppm active ingredient, 20 ml sprayed on cucumber seedlings with about 30 cotton aphids, 6 days after spraying.
[2] abbreviates: 500 ppm, 1 mL on artificial feed, 30 first-instar larvae, 25° C., after 7 days, read-out: Mortality.
Setting [3] is: 500 ppm, 20 mL/cup sprayed on cabbages, 5 second-instar larvae, 25° C., after 5 days.

Data on 26 molecules can be found in patent US20150126516A1, “PIPERIDINE COMPOUND AND ITS USE IN PEST CONTROL” (Sumitomo Chemical Company, Limited, priority 2012, published 2015).

Like-named read-outs stand apart in the source and are kept apart here.

With `O=C(NCC1(c2ccccc2)CCN(CCc2ccccc2C(F)(F)F)CC1)c1cc(Cl)nc(Cl)c1` [compound 1, 2,6-dichloro-N-((4-phenyl-1-(2-(trifluoromethyl)phenethyl)piperidin-4-yl)methyl)isonicotinamide], the mortality at 500 ppm in assay [1] was ≥ 90%; in the assay with diamondback moths, ≥ 80%.

Turning to `O=C(NCC1(c2ccccc2)CCN(CCc2ccccc2)CC1)c1ccnc(Cl)c1` [compound 2, 2-chloro-N-((1-phenethyl-4-phenylpiperidin-4-yl)methyl)isonicotinamide], the pest or weed control at 500 ppm with cotton aphids is ≥ 90%.

As for `O=C(NCC1(c2ccccc2)CCN(CCc2ccccc2C(F)(F)F)CC1)c1ccnc(Cl)c1` [compound 3, 2-chloro-N-((4-phenyl-1-(2-(trifluoromethyl)phenethyl)piperidin-4-yl)methyl)isonicotinamide], the mortality at 500 ppm in assay [1] was ≥ 90%. Moreover, in the assay with cotton aphids, the pest or weed control at 500 ppm was ≥ 90%.

For `O=C(NCC1(c2ccccc2)CCN(CCc2ccccc2)CC1)c1ccc(Cl)cc1` [compound 6, 4-chloro-N-((1-phenethyl-4-phenylpiperidin-4-yl)methyl)benzamide], the mortality at 500 ppm in assay [1] (setting [2]) was ≥ 90%.

As for `O=C(NCC1(c2ccccc2)CCN(CCc2ccc(C(F)(F)F)cc2)CC1)c1ccnc(Cl)c1` [compound 10, 2-chloro-N-((4-phenyl-1-(4-(trifluoromethyl)phenethyl)piperidin-4-yl)methyl)isonicotinamide], in assay [1] (setting [2]), the mortality at 500 ppm is ≥ 90%.

`O=C(NCC1(c2ccccc2)CCN(CCc2ccccc2C(F)(F)F)CC1)c1ccccc1` [compound 11, N-((4-phenyl-1-(2-(trifluoromethyl)phenethyl)piperidin-4-yl)methyl)benzamide]: the mortality at 500 ppm in the assay on diamondback moths was ≥ 80%. Further, the pest or weed control at 500 ppm in the assay on cotton aphids is ≥ 90%.

`O=C(NCC1(c2ccccc2)CCN(CCc2ccccc2C(F)(F)F)CC1)c1ccccc1Cl` [compound 12, 2-chloro-N-((4-phenyl-1-(2-(trifluoromethyl)phenethyl)piperidin-4-yl)methyl)benzamide]: the mortality at 500 ppm in assay [1] is ≥ 90%; in the assay on diamondback moths, ≥ 80%. The pest or weed control at 500 ppm in the assay on cotton aphids was ≥ 90%.

In the case of `O=C(NCC1(c2ccccc2)CCN(CCc2ccccc2C(F)(F)F)CC1)c1cccc(Cl)c1` [compound 13, 3-chloro-N-((4-phenyl-1-(2-(trifluoromethyl)phenethyl)piperidin-4-yl)methyl)benzamide], the mortality at 500 ppm with diamondback moths (setting [3]) is ≥ 80%.

Take `O=C(NCC1(c2ccccc2)CCN(CCc2ccccc2C(F)(F)F)CC1)c1ccc(Cl)cc1` [compound 14, 4-chloro-N-((4-phenyl-1-(2-(trifluoromethyl)phenethyl)piperidin-4-yl)methyl)benzamide]: the mortality at 500 ppm in the assay on diamondback moths (setting [3]) was ≥ 80%.

`O=C(NCC1(c2ccccc2)CCN(CCc2ccccc2C(F)(F)F)CC1)c1ccccn1` [compound 16, N-((4-phenyl-1-(2-(trifluoromethyl)phenethyl)piperidin-4-yl)methyl)picolinamide]: the mortality at 500 ppm in assay [1] was ≥ 90%; in the assay with diamondback moths, ≥ 80%. Besides, the pest or weed control at 500 ppm in the assay on cotton aphids is ≥ 90%.

Regarding `O=C(NCC1(c2ccccc2)CCN(CCc2ccccc2C(F)(F)F)CC1)c1cc(Cl)cc(Cl)c1` [compound 17, 3,5-dichloro-N-((4-phenyl-1-(2-(trifluoromethyl)phenethyl)piperidin-4-yl)methyl)benzamide], the mortality at 500 ppm is ≥ 90% in assay [1] (setting [2]) and ≥ 80% in the assay with diamondback moths (setting [3]).

On to `O=C(NCC1(c2ccccc2)CCN(CCc2ccccc2)CC1)c1cc(Cl)nc(Cl)c1` [compound 20, 2,6-dichloro-N-((1-phenethyl-4-phenylpiperidin-4-yl)methyl)isonicotinamide], for which the mortality at 500 ppm in assay [1] is ≥ 90%. Also, in the assay on cotton aphids, the pest or weed control at 500 ppm is ≥ 90%.

Consider `O=C(NCC1(c2ccccc2)CCN(CCc2ccccc2C(F)(F)F)CC1)c1ncccc1Cl` [compound 21, 3-chloro-N-((4-phenyl-1-(2-(trifluoromethyl)phenethyl)piperidin-4-yl)methyl)picolinamide], for which the mortality at 500 ppm in assay [1] was ≥ 90%. In addition, the pest or weed control at 500 ppm with cotton aphids was ≥ 90%.

Turning to `O=C(NCC1(c2cccc(Cl)c2)CCN(CCc2ccccc2C(F)(F)F)CC1)c1ccccc1Cl` [compound 23, 2-chloro-N-((4-(3-chlorophenyl)-1-(2-(trifluoromethyl)phenethyl)piperidin-4-yl)methyl)benzamide], the mortality at 500 ppm in assay [1] (setting [2]) is ≥ 90%.

On to `O=C(NCC1(c2ccccc2)CCN(CCc2ccccc2C(F)(F)F)CC1)c1cccnc1Cl` [compound 24, 2-chloro-N-((4-phenyl-1-(2-(trifluoromethyl)phenethyl)piperidin-4-yl)methyl)nicotinamide], for which the pest or weed control at 500 ppm in the assay on cotton aphids was ≥ 90%.

For the molecule `O=C(NCC1(c2ccccc2Cl)CCN(CCc2ccccc2C(F)(F)F)CC1)c1ccccc1Cl` [compound 25, 2-chloro-N-((4-(2-chlorophenyl)-1-(2-(trifluoromethyl)phenethyl)piperidin-4-yl)methyl)benzamide], the pest or weed control at 500 ppm in the assay with cotton aphids is ≥ 90%.

With `COc1ccccc1CCN1CCC(CNC(=O)c2cc(Cl)nc(Cl)c2)(c2ccccc2)CC1` [compound 26, 2,6-dichloro-N-((1-(2-methoxyphenethyl)-4-phenylpiperidin-4-yl)methyl)isonicotinamide], the mortality at 500 ppm in assay [1] was ≥ 90%. In addition, the pest or weed control at 500 ppm in the assay on cotton aphids was ≥ 90%.

In the case of `Cc1ccccc1CCN1CCC(CNC(=O)c2cc(Cl)nc(Cl)c2)(c2ccccc2)CC1` [compound 27, 2,6-dichloro-N-((1-(2-methylphenethyl)-4-phenylpiperidin-4-yl)methyl)isonicotinamide], the mortality at 500 ppm in assay [1] is ≥ 90%. Also, the pest or weed control at 500 ppm in the assay with cotton aphids is ≥ 90%.

Regarding `O=C(NCC1(c2ccccc2)CCN(CCc2ccccc2Cl)CC1)c1cc(Cl)nc(Cl)c1` [compound 29, 2,6-dichloro-N-((1-(2-chlorophenethyl)-4-phenylpiperidin-4-yl)methyl)isonicotinamide], the mortality at 500 ppm in assay [1] is ≥ 90%. Further, in the assay with cotton aphids, the pest or weed control at 500 ppm was ≥ 90%.

`O=C(NCC1(c2ccccc2)CCN(CCc2cccc(Cl)c2Cl)CC1)c1cc(Cl)nc(Cl)c1` [compound 33, 2,6-dichloro-N-((1-(2,3-dichlorophenethyl)-4-phenylpiperidin-4-yl)methyl)isonicotinamide]: the mortality at 500 ppm in assay [1] (setting [2]) is ≥ 90%.

On to `O=C(NCC1(c2ccccc2)CCN(CCc2ccccc2C(F)(F)F)CC1)c1c(F)cc(F)cc1F` [compound 36, 2,4,6-trifluoro-N-((4-phenyl-1-(2-(trifluoromethyl)phenethyl)piperidin-4-yl)methyl)benzamide], for which the mortality at 500 ppm in the assay with diamondback moths is ≥ 80%. Further, in the assay with cotton aphids, the pest or weed control at 500 ppm is ≥ 90%.

Regarding `O=C(NCC1(c2ccccn2)CCN(CCc2ccccc2C(F)(F)F)CC1)c1cc(Cl)nc(Cl)c1` [compound 38, 2,6-dichloro-N-((4-(pyridin-2-yl)-1-(2-(trifluoromethyl)phenethyl)piperidin-4-yl)methyl)isonicotinamide], the figures for the mortality at 500 ppm (in assay [1]; in the assay with diamondback moths) were ≥ 90% and ≥ 80%, respectively. The pest or weed control at 500 ppm in the assay with cotton aphids is ≥ 90%.

As to `O=C(NCC1(c2cccnc2)CCN(CCc2ccccc2C(F)(F)F)CC1)c1cc(Cl)nc(Cl)c1` [compound 39, 2,6-dichloro-N-((4-(pyridin-3-yl)-1-(2-(trifluoromethyl)phenethyl)piperidin-4-yl)methyl)isonicotinamide], in the assay with cotton aphids, the pest or weed control at 500 ppm was ≥ 90%.

Turning to `O=C(NCC1(c2ncccc2F)CCN(CCc2ccccc2C(F)(F)F)CC1)c1ccnc(Cl)c1` [compound 40, 2-chloro-N-((4-(3-fluoropyridin-2-yl)-1-(2-(trifluoromethyl)phenethyl)piperidin-4-yl)methyl)isonicotinamide], in the assay on cotton aphids, the pest or weed control at 500 ppm is ≥ 90%.

On to `O=C(NCC1(c2ccccn2)CCN(CCc2ccccc2C(F)(F)F)CC1)c1ccccc1Cl` [compound 41, 2-chloro-N-((4-(pyridin-2-yl)-1-(2-(trifluoromethyl)phenethyl)piperidin-4-yl)methyl)benzamide], for which the pest or weed control at 500 ppm with cotton aphids is ≥ 90%.

With `COc1ccccc1C(=O)NCC1(c2ccccn2)CCN(CCc2ccccc2C(F)(F)F)CC1` [compound 42, 2-methoxy-N-((4-(pyridin-2-yl)-1-(2-(trifluoromethyl)phenethyl)piperidin-4-yl)methyl)benzamide], in assay [1], the mortality at 500 ppm was ≥ 90%. Further, in the assay on cotton aphids, the pest or weed control at 500 ppm was ≥ 90%.
